# Laboratory results reported in publication PMC8423723, “Regulation of cadherin dimerization by chemical fragments as a trigger to inhibit cell adhesion” (Communications Biology, 2021).
# Legend:
# [1] = target: T1, REC12 (P-cadherin monomer mutant) (Homo sapiens, UniProt P22223, INS0R); assay: SPR, Scatchard analysis of equilibrium responses; type: binding
# T1 construct: gene CDH3; EC12 (EC1-EC2, residues 1-241) with Arg inserted at N terminus; biotinylated for chip capture; E. coli Rosetta2(DE3), SUMO tag cut with Ulp1; monomer
# EC12 (P-cadherin) = target: T2, EC12 (P-cadherin) (Homo sapiens, UniProt P22223); assay: SPR ABA assay, disruption of EC12 dimer on chip; type: binding; settings: 100 µM compound, 2 µM EC12 in solution A
# T2 construct: gene CDH3; EC1-EC2, residues 1-241, wild type; E. coli, SUMO cut; amine-coupled to CM5 chip
# [2] = target: T3, REC12 (P-cadherin monomer mutant) (Homo sapiens, UniProt P22223); settings: pH 7.5, 25 °C, 3 mM CaCl2, 5% DMSO; construct printed only as P-cadherin
# T3 construct: gene CDH3
# [3] = target: C-terminally His-tagged P-cadherin MEC12 (X dimer), on liposomes (human)
# [4] = target: P-cadherin MEC12 (X dimer) K14A; assay: SEC-MALS; settings: N = 1; parent: est. 33; read off a plot
# T1 sequence (P22223 107-348, stated change not applied): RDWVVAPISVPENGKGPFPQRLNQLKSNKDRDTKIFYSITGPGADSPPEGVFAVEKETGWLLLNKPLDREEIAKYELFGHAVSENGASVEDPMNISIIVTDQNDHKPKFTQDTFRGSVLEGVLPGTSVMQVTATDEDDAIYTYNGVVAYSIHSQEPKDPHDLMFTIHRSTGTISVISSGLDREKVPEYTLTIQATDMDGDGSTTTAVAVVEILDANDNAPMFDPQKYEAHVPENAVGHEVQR
# T3 sequence (P22223 107-348, change not shown): as the sequence (P22223 107-348, stated change not applied) above
# T2 sequence (P22223 108-348): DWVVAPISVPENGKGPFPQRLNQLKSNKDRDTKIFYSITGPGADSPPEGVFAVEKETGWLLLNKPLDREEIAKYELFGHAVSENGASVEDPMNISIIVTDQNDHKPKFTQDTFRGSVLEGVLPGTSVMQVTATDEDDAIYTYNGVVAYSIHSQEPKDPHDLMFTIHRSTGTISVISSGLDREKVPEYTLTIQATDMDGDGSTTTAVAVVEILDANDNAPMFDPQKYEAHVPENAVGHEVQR
compound,measurement,setting,value
Cc1[nH]c2ccc(Cl)cc2c1CCN [Hit 1],Kd,[1],~916 µM
same,"SPR ABA assay, disruption of EC12 dimer on chip",EC12 (P-cadherin),These compounds bound to and disrupted the dimerization
NCCc1c[nH]c2ccccc12 [tryptamine],SPR direct binding,[2],only tryptamine bound to P-cadherin
"C-terminally His-tagged P-cadherin MEC12 (X dimer), on liposomes (domain or fragment)","kobs of liposome aggregation (optical density at 650 nm after addition of CaCl2, one-phase association), in the absence of Hit 1; no aggregation with EDTA or without MEC12",[3],0.0086
same,"kobs of liposome aggregation (optical density at 650 nm after addition of CaCl2, one-phase association), in the presence of Hit 1",[3],0.0033
P-cadherin MEC12 (X dimer) as used in SEC-MALS and HDX-MS K14A,other: molecular weight (SEC-MALS),[4],24 kDa
